Earlier results in patent publication US20100260718A1, “IRF-4 AS A TUMOR SUPPRESSOR AND USES THEREOF” (Brandels University, priority 2007, published 2010).

What was measured:
IRF-4 = conditions: patients with CML, downregulated before treatment
[1] = test system: primitive CML progenitors

In the case of IFN-α, the IRF-4 expression (IRF-4) is listed as “restored” and the “toxicity to the more primitive CML progenitors, relative to imatinib” value [1] is listed as “higher toxicity”.
